Test results reported in patent EP3409761B1, “CULTURE MEDIUM COMPOSITION, AND METHOD FOR CULTURING CELL OR TISSUE USING SAID COMPOSITION” (Nissan Chemical Corporation, priority 2012, dated 2014).

Key:
Format in all cases: cell-based
[1] = tested on: human cervical cancer cell line HeLa; experiment: Cell proliferation test using various anticancer drugs; settings: DAG 0.030% medium; for cell density: 5 days later
Experimental: This aqueous solution was sterilized at 121°C for 20 min in an autoclave. […] The anticancer drug used was Adriamycin (manufactured by WAKO), Paclitaxel (manufactured by WAKO) or Mitomycin C (manufactured by WAKO).
Successively, this plate was cultured by being stood still in a CO2 incubator (37°C, 5% CO2) for 7 days. After culturing for 3, 5, 7 days, to the culture medium was added a WST-8 solution (manufactured by DOJINDO Laboratories, 20 µL), and the mixture was incubated at 37°C for 100 min. The absorbance at 450 nm was measured by an absorbance spectrometer (manufactured by Molecular Devices, SPECTRA MAX 190), and the number of viable cells was measured by subtracting the absorbance of the medium alone. The culture medium containing the cells after 5 days of culture was stirred with a pipette and the obtained stirred solution (20 µL) was mixed with Trypan Blue stain 0.4% (manufactured by Invitrogen, 20 µL) and the cell density was measured under a microscope.

[2] = tested on: human cervical cancer cell line HeLa; experiment: Comparison with single layer culture method in cell proliferation test using anticancer drug; settings: day 4
Experimental: This aqueous solution was sterilized at 121°C for 20 min in an autoclave. […] Each plate was cultured by being stood still in a CO2 incubator (37°C, 5% CO2). […] The anticancer drug used was Adriamycin (manufactured by WAKO), Paclitaxel (manufactured by WAKO) or Mitomycin C (manufactured by WAKO). To the culture medium on day 4 was added an ATP reagent (150 µL) (CellTiter-Glo (registered trade mark) Luminescent Cell Viability Assay, manufactured by Promega) to give a suspension, which was stood for about 10 min at room temperature, and the luminescence intensity (RLU value) was measured by FlexStation3 (manufactured by Molecular Devices), and the number of viable cells was measured by subtracting the luminescence value of the medium alone. For WST-8 measurement, a WST-8 solution (manufactured by DOJINDO Laboratories, 15 µL) was added, the mixture was incubated at 37°C for 100 min, the absorbance at 450 nm was measured by an absorbance spectrometer (manufactured by Molecular Devices, SPECTRA MAX 190), and the number of viable cells was measured by subtracting the absorbance of the medium alone.

[3] = tested on: human cervical cancer cell line HeLa; experiment: Comparison with single layer culture method using agent for inducing apoptosis; settings: agent 1 µM, day 4
Experimental: This aqueous solution was sterilized at 121°C for 20 min in an autoclave. […] Each plate was cultured by being stood still in a CO2 incubator (37°C, 5% CO2). […] To the culture medium on day 4 was added an ATP reagent (150 µL) (CellTiter-Glo (registered trade mark) Luminescent Cell Viability Assay, manufactured by Promega) to give a suspension, which was stood for about 10 min at room temperature, and the luminescence intensity (RLU value) was measured by FlexStation3 (manufactured by Molecular Devices), and the number of viable cells was measured by subtracting the luminescence value of the medium alone. For WST-8 measurement, a WST-8 solution (manufactured by DOJINDO Laboratories, 15 µL) was added, the mixture was incubated at 37°C for 100 min, the absorbance at 450 nm was measured by an absorbance spectrometer (manufactured by Molecular Devices, SPECTRA MAX 190), and the number of viable cells was measured by subtracting the absorbance of the medium alone.

[4] = tested on: human cervical cancer cell line HeLa; experiment: HeLa cell proliferation test using Trametinib and MK-2206; settings: day 4 of the static culture
Experimental: (§1) This aqueous solution was sterilized at 121°C for 20 min in an autoclave. […] Each plate was cultured by being stood still in a CO2 incubator (37°C, 5% CO2). […] The anticancer drugs used were Trametinib (manufactured by Santa Cruz, MEK inhibitor) and MK-2206 (manufactured by Santa Cruz, Akt inhibitor). […]

[5] = tested on: human lung cancer cell line A549; experiment: A549 cell proliferation test using Trametinib and MK-2206; settings: day 4 of the static culture
Experimental: as §1

[6] = drug 0.001 µM, deacylated gellan gum addition group (0.015%)
[7] = drug 0.001 µM, single layer culture group
[8] = drug 0.01 µM, deacylated gellan gum addition group (0.015%)
[9] = drug 0.01 µM, single layer culture group
[10] = drug 0.1 µM, deacylated gellan gum addition group (0.015%)
[11] = drug 0.1 µM, single layer culture group
[12] = drug 1 µM, deacylated gellan gum addition group (0.015%)
[13] = drug 1 µM, single layer culture group
[14] = deacylated gellan gum addition group (0.015%)
[15] = drug 0.03 µM, deacylated gellan gum addition group (0.015%)
[16] = drug 0.03 µM, single layer culture group
[17] = drug 0.3 µM, deacylated gellan gum addition group (0.015%)
[18] = drug 0.3 µM, single layer culture group
[19] = drug 3 µM, deacylated gellan gum addition group (0.015%)
[20] = drug 3 µM, single layer culture group
[21] = drug 30 µM, deacylated gellan gum addition group (0.015%)
[22] = drug 30 µM, single layer culture group

## COc1cccc2c1C(=O)c1c(O)c3c(c(O)c1C2=O)C[C@@](O)(C(=O)CO)C[C@@H]3O[C@H]1C[C@H](N)[C@H](O)[C@H](C)O1 [Adriamycin]
[1]; drug 0.001 µM
  cell density: 5.1 10^4 cells/mL
[1]; drug 0.001 µM, day 3
  cell number (absorbance at 450 nm, WST-8): 0.237
[1]; drug 0.001 µM, day 5
  cell number (absorbance at 450 nm, WST-8): 0.246
[1]; drug 0.001 µM, day 7
  cell number (absorbance at 450 nm, WST-8): 0.184
[1]; drug 0.01 µM
  cell density: 2.6 10^4 cells/mL
[1]; drug 0.01 µM, day 3
  cell number (absorbance at 450 nm, WST-8): 0.230
[1]; drug 0.01 µM, day 5
  cell number (absorbance at 450 nm, WST-8): 0.098
[1]; drug 0.01 µM, day 7
  cell number (absorbance at 450 nm, WST-8): 0.068
[1]; drug 0.1 µM
  cell density: 1.7 10^4 cells/mL
[1]; drug 0.1 µM, day 3
  cell number (absorbance at 450 nm, WST-8): 0.037
[1]; drug 0.1 µM, day 5
  cell number (absorbance at 450 nm, WST-8): 0.005
[1]; drug 0.1 µM, day 7
  cell number (absorbance at 450 nm, WST-8): < 0
[1]; drug 1 µM
  cell density: 0.6 10^4 cells/mL
[1]; drug 1 µM, day 3
  cell number (absorbance at 450 nm, WST-8): < 0
[1]; drug 1 µM, day 5
  cell number (absorbance at 450 nm, WST-8): < 0
[1]; drug 1 µM, day 7
  cell number (absorbance at 450 nm, WST-8): < 0
[2]; [6]
  % Control value of the RLU value (ATP measurement): 96 % Control
  % Control value of the absorbance at 450 nm (WST-8 measurement): 105 % Control
[2]; [7]
  % Control value of the RLU value (ATP measurement): 97 % Control
  % Control value of the absorbance at 450 nm (WST-8 measurement): 109 % Control
[2]; [8]
  % Control value of the RLU value (ATP measurement): 81 % Control
  % Control value of the absorbance at 450 nm (WST-8 measurement): 86 % Control
[2]; [9]
  % Control value of the RLU value (ATP measurement): 97 % Control
  % Control value of the absorbance at 450 nm (WST-8 measurement): 107 % Control
[2]; [10]
  % Control value of the RLU value (ATP measurement): 41 % Control
  % Control value of the absorbance at 450 nm (WST-8 measurement): 36 % Control
[2]; [11]
  % Control value of the RLU value (ATP measurement): 65 % Control
  % Control value of the absorbance at 450 nm (WST-8 measurement): 74 % Control
[2]; [12]
  % Control value of the RLU value (ATP measurement): 15 % Control
  % Control value of the absorbance at 450 nm (WST-8 measurement): 4 % Control
[2]; [13]
  % Control value of the RLU value (ATP measurement): 5 % Control
  % Control value of the absorbance at 450 nm (WST-8 measurement): 6 % Control
[3]; [14]
  % Control value of the RLU value (ATP measurement): 5 % Control
  % Control value of the absorbance at 450 nm (WST-8 measurement): 3 % Control
[3]; single layer culture group
  % Control value of the RLU value (ATP measurement): 3 % Control
  % Control value of the absorbance at 450 nm (WST-8 measurement): 3 % Control

## CC(=O)Nc1cccc(-n2c(=O)n(C3CC3)c(=O)c3c(Nc4ccc(I)cc4F)n(C)c(=O)c(C)c32)c1 [Trametinib]
[4]; [6]
  % Control value of the RLU value (ATP measurement): 73 % Control
[4]; [7]
  % Control value of the RLU value (ATP measurement): 102 % Control
[4]; [8]
  % Control value of the RLU value (ATP measurement): 12 % Control
[4]; [9]
  % Control value of the RLU value (ATP measurement): 93 % Control
[4]; [10]
  % Control value of the RLU value (ATP measurement): 1 % Control
[4]; [11]
  % Control value of the RLU value (ATP measurement): 20 % Control
[4]; [12]
  % Control value of the RLU value (ATP measurement): 1 % Control
[4]; [13]
  % Control value of the RLU value (ATP measurement): 3 % Control
[5]; [6]
  % Control value of the RLU value (ATP measurement): 72 % Control
[5]; [7]
  % Control value of the RLU value (ATP measurement): 71 % Control
[5]; [8]
  % Control value of the RLU value (ATP measurement): 35 % Control
[5]; [9]
  % Control value of the RLU value (ATP measurement): 37 % Control
[5]; [10]
  % Control value of the RLU value (ATP measurement): 2 % Control
[5]; [11]
  % Control value of the RLU value (ATP measurement): 5 % Control
[5]; [12]
  % Control value of the RLU value (ATP measurement): 0 % Control
[5]; [13]
  % Control value of the RLU value (ATP measurement): 1 % Control

## NC1(c2ccc(-c3nc4ccn5c(=O)[nH]nc5c4cc3-c3ccccc3)cc2)CCC1 [MK-2206]
[4]; [15]
  % Control value of the RLU value (ATP measurement): 57 % Control
[4]; [16]
  % Control value of the RLU value (ATP measurement): 93 % Control
[4]; [17]
  % Control value of the RLU value (ATP measurement): 21 % Control
[4]; [18]
  % Control value of the RLU value (ATP measurement): 84 % Control
[4]; [19]
  % Control value of the RLU value (ATP measurement): 21 % Control
[4]; [20]
  % Control value of the RLU value (ATP measurement): 69 % Control
[4]; [21]
  % Control value of the RLU value (ATP measurement): 0 % Control
[4]; [22]
  % Control value of the RLU value (ATP measurement): 0 % Control
[5]; [15]
  % Control value of the RLU value (ATP measurement): 84 % Control
[5]; [16]
  % Control value of the RLU value (ATP measurement): 93 % Control
[5]; [17]
  % Control value of the RLU value (ATP measurement): 45 % Control
[5]; [18]
  % Control value of the RLU value (ATP measurement): 79 % Control
[5]; [19]
  % Control value of the RLU value (ATP measurement): 21 % Control
[5]; [20]
  % Control value of the RLU value (ATP measurement): 53 % Control
[5]; [21]
  % Control value of the RLU value (ATP measurement): 0 % Control
[5]; [22]
  % Control value of the RLU value (ATP measurement): 0 % Control
